Where a SMILES comes first, the peptide text is derived from it. Bridges are numbered along the chain shown (N, C = ends). [ ]: non-standard residue; d: D form. The star is where a group is joined. Phe(4-COOH) = N[C@@H](Cc1ccc(C(=O)O)cc1)C(=O)O; Bip = N[C@@H](Cc1ccc(-c2ccccc2)cc1)C(=O)O; Phe(3-Me) = Cc1cccc(C[C@H](N)C(=O)O)c1; Val(3-OH) = CC(C)(O)[C@H](N)C(=O)O; 4Pal = N[C@@H](Cc1ccncc1)C(=O)O; 3Thi = N[C@@H](Cc1ccsc1)C(=O)O; Cha = N[C@@H](CC1CCCCC1)C(=O)O; Cit = NC(=O)NCCC[C@H](N)C(=O)O; Carboxymethyl = O=C(O)C*; NMeA = CN[C@@H](C)C(=O)O; Aun = NCCCCCCCCCCC(=O)O; Dab = NCC[C@H](N)C(=O)O; AEEA = NCCOCCOCC(=O)O

One assay deals with T1, PD-1/PD-L1 interaction (PE-labeled human PD-L1-Ig binding to Jurkat cell line over-expressing human PD-1) (Homo sapiens, UniProt Q15116).
T1 construct: expressed in transfected cells; host or cells: Jurkat
T1 sequence (Q15116 25-288): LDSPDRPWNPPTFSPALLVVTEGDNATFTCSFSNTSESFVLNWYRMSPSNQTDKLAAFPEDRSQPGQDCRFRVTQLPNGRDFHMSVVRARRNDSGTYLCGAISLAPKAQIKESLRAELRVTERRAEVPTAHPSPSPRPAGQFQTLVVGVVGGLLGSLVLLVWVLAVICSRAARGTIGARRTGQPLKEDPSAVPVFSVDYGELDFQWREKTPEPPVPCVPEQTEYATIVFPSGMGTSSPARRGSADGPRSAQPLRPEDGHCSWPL
Put plainly: Jurkat-PD-1 Cell Binding High-Content Screening Assay (CBA). The conditions noted are these: Jurkat-hPD-1 cells, PE-labeled PD-L1-Ig 20 nM final; read-out: Jurkat HPD1 PDL1 IC50. The procedure, abridged:
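Compound is added first to the PD-1-expressing Jurkat cells and held 2 h at 37 °C in serum-containing DMEM. The fluorescent PD-L1 fusion follows at 20 nM final for 1 h. Fixed, Hoechst-stained cells are then imaged for bound label.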
For orientation: IC50 means the concentration needed to halve the response being measured. Take `CC(C)C[C@H]1NC(=O)[C@H](C)N(C)C(=O)[C@H](C(C)C)NC(=O)[C@H](Cc2ccc(-c3ccccc3)cc2)NC(=O)[C@H](C(C)C)NC(=O)[C@H](Cc2c[nH]c3ccccc23)NC(=O)[C@H](CC(=O)O)NC(=O)[C@H](Cc2ccc(OCC(=O)O)cc2)NC(=O)[C@H](Cc2ccc(OCC(=O)O)cc2)NC(=O)CSC[C@@H](C(=O)NCCOCCOCC(=O)NCCCCCCCCCCC(=O)O)NC(=O)[C@H](CO)NC(=O)[C@H](C(C)C)NC(=O)[C@H](CC2CCCCC2)NC(=O)[C@H](CCN)NC1=O` [Example 2453] ({CH2CO}-Y(Carboxymethyl)Y(Carboxymethyl)DWV[Bip]V[NMeA][dL][Dab][Cha]VSC[AEEA][Aun]-OH; thioether N-14): the IC50 came out at 13.1 nM. With `Cc1cccc(C[C@@H]2NC(=O)[C@H](CC(=O)O)NC(=O)[C@H](Cc3ccc(OCC(=O)O)cc3)NC(=O)[C@H](Cc3ccncc3)NC(=O)CSC[C@@H](C(=O)N[C@@H](CCN)C(=O)NCCCCCCCCCCC(=O)O)NC(=O)[C@H](CO)NC(=O)[C@H](CO)NC(=O)[C@H](CC3CCCCC3)NC(=O)[C@H](CCN)NC(=O)[C@@H](CC(C)C)NC(=O)[C@H](C)N(C)C(=O)[C@H](Cc3ccc(OCC(=O)O)cc3)NC(=O)[C@H](Cc3ccc(-c4ccccc4)cc3)NC(=O)[C@H](Cc3ccc(OCC(=O)O)cc3)NC2=O)c1` [Example 2454] ({CH2CO}-[4Pal]Y(Carboxymethyl)D[Phe(3-Me)]Y(Carboxymethyl)[Bip]Y(Carboxymethyl)[NMeA][dL][Dab][Cha]SSC[Dab][Aun]-OH; thioether N-14), the half-maximal inhibitory concentration (IC50) came out at 11.1 nM.

The same assay, now with this note: PE-labeled PD-L1-Ig 20 nM final, Jurkat-hPD-1 cells; read-out: Jurkat HPD1 PDL1 IC50.
As to `CC(C)C[C@H]1NC(=O)[C@H](C)N(C)C(=O)[C@H](C(C)C)NC(=O)[C@H](Cc2ccc(-c3ccccc3)cc2)NC(=O)[C@H](C(C)C)NC(=O)[C@H](Cc2c[nH]c3ccccc23)NC(=O)[C@H](CC(=O)O)NC(=O)[C@H](Cc2ccc(OCC(=O)O)cc2)NC(=O)[C@H](Cc2ccc(OCC(=O)O)cc2)NC(=O)CSC[C@@H](C(=O)NCCOCCOCC(=O)NCCCCCCCCCCC(=O)O)NC(=O)[C@H](CO)NC(=O)[C@H](C(C)(C)O)NC(=O)[C@H](CC2CCCCC2)NC(=O)[C@H](CCN)NC1=O` [Example 2455] ({CH2CO}-Y(Carboxymethyl)Y(Carboxymethyl)DWV[Bip]V[NMeA][dL][Dab][Cha][Val(3-OH)]SC[AEEA][Aun]-OH; thioether N-14), the IC50 came to 8.4 nM. Still for that read-out and setting: for `CC(C)C[C@H]1NC(=O)[C@H](C)N(C)C(=O)[C@H](CCCNC(N)=O)NC(=O)[C@H](Cc2ccc(-c3ccccc3)cc2)NC(=O)[C@H](C(C)C)NC(=O)[C@H](Cc2c[nH]c3ccccc23)NC(=O)[C@H](CC(=O)O)NC(=O)[C@H](Cc2ccc(OCC(=O)O)cc2)NC(=O)[C@H](Cc2ccc(OCC(=O)O)cc2)NC(=O)CSC[C@@H](C(=O)NCCOCCOCC(=O)NCCCCCCCCCCC(=O)O)NC(=O)[C@H](CO)NC(=O)[C@H](C(C)(C)O)NC(=O)[C@H](CC2CCCCC2)NC(=O)[C@H](CCN)NC1=O` [Example 2456] ({CH2CO}-Y(Carboxymethyl)Y(Carboxymethyl)DWV[Bip][Cit][NMeA][dL][Dab][Cha][Val(3-OH)]SC[AEEA][Aun]-OH; thioether N-14) the value was 12.5 nM; for `Cc1cccc(C[C@@H]2NC(=O)[C@H](CC(=O)O)NC(=O)[C@H](Cc3ccc(OCC(=O)O)cc3)NC(=O)[C@H](Cc3ccsc3)NC(=O)CSC[C@@H](C(=O)N[C@@H](CCN)C(=O)NCCCCCCCCCCC(=O)O)NC(=O)[C@H](CO)NC(=O)[C@H](C(C)(C)O)NC(=O)[C@H](CC3CCCCC3)NC(=O)[C@H](Cc3cnc[nH]3)NC(=O)[C@@H](CC(C)C)NC(=O)[C@H](C)N(C)C(=O)[C@H](Cc3ccc(OCC(=O)O)cc3)NC(=O)[C@H](Cc3ccc(-c4ccccc4)cc3)NC(=O)[C@H](Cc3ccc(OCC(=O)O)cc3)NC2=O)c1` [Example 2457] ({CH2CO}-[3Thi]Y(Carboxymethyl)D[Phe(3-Me)]Y(Carboxymethyl)[Bip]Y(Carboxymethyl)[NMeA][dL]H[Cha][Val(3-OH)]SC[Dab][Aun]-OH; thioether N-14), 41.2 nM; for `CC(C)C[C@@H]1NC(=O)[C@H](Cc2c[nH]c3ccccc23)NC(=O)[C@H](CC(=O)O)NC(=O)[C@H](Cc2ccc(OCC(=O)O)cc2)NC(=O)[C@H](Cc2ccc(OCC(=O)O)cc2)NC(=O)CSC[C@@H](C(=O)NCCOCCOCC(=O)NCCCCCCCCCCC(=O)O)NC(=O)[C@H](CCCNC(N)=O)NC(=O)[C@H](C(C)(C)O)NC(=O)[C@H](CC2CCCCC2)NC(=O)[C@H](CCN)NC(=O)[C@@H](CC(C)C)NC(=O)[C@H](C)N(C)C(=O)[C@H](C(C)C)NC(=O)[C@H](Cc2ccc(-c3ccccc3)cc2)NC1=O` [Example 2458] ({CH2CO}-Y(Carboxymethyl)Y(Carboxymethyl)DWL[Bip]V[NMeA][dL][Dab][Cha][Val(3-OH)][Cit]C[AEEA][Aun]-OH; thioether N-14), 22.1 nM.

Regarding `CC(=O)NCCCC[C@@H]1NC(=O)[C@H](C(C)(C)O)NC(=O)[C@H](CC2CCCCC2)NC(=O)[C@H](CCN)NC(=O)[C@@H](CC(C)C)NC(=O)[C@H](C)N(C)C(=O)[C@H](CCC(N)=O)NC(=O)[C@H](Cc2ccc(-c3ccccc3)cc2)NC(=O)[C@H](CC(C)C)NC(=O)[C@H](Cc2c[nH]c3ccccc23)NC(=O)[C@H](CC(=O)O)NC(=O)[C@H](Cc2ccc(C(=O)O)cc2)NC(=O)[C@H](Cc2ccc(OCC(=O)O)cc2)NC(=O)CSC[C@@H](C(=O)NCCOCCOCC(=O)NCCCCCCCCCCC(=O)O)NC1=O` [Example 2459] ({CH2CO}-Y(Carboxymethyl)[Phe(4-COOH)]DWL[Bip]Q[NMeA][dL][Dab][Cha][Val(3-OH)]K(Ac)C[AEEA][Aun]-OH; thioether N-14), the half-maximal inhibitory concentration (IC50) is 45.1 nM. On the same count and under the same terms, for `CC(=O)NCCCC[C@@H]1NC(=O)[C@H](C(C)(C)O)NC(=O)[C@H](CC2CCCCC2)NC(=O)[C@H](CCN)NC(=O)[C@@H](CC(C)C)NC(=O)[C@H](C)N(C)C(=O)[C@H](C(C)C)NC(=O)[C@H](Cc2ccc(-c3ccccc3)cc2)NC(=O)[C@H](CC(C)C)NC(=O)[C@H](Cc2c[nH]c3ccccc23)NC(=O)[C@H](CC(=O)O)NC(=O)[C@H](Cc2ccc(C(=O)O)cc2)NC(=O)[C@H](Cc2ccc(OCC(=O)O)cc2)NC(=O)CSC[C@@H](C(=O)NCCOCCOCC(=O)NCCCCCCCCCCC(=O)O)NC1=O` [Example 2460] ({CH2CO}-Y(Carboxymethyl)[Phe(4-COOH)]DWL[Bip]V[NMeA][dL][Dab][Cha][Val(3-OH)]K(Ac)C[AEEA][Aun]-OH; thioether N-14) the value was 14.9 nM. Consider `Cc1cccc(C[C@@H]2NC(=O)[C@H](CC(=O)O)NC(=O)[C@H](Cc3ccc(C(=O)O)cc3)NC(=O)[C@H](Cc3ccncc3)NC(=O)CSC[C@@H](C(=O)NCCOCCOCC(=O)NCCCCCCCCCCC(=O)O)NC(=O)[C@H](CO)NC(=O)[C@H](C(C)(C)O)NC(=O)[C@H](CC3CCCCC3)NC(=O)[C@H](CCN)NC(=O)[C@@H](CC(C)C)NC(=O)[C@H](C)N(C)C(=O)[C@H](Cc3ccc(OCC(=O)O)cc3)NC(=O)[C@H](Cc3ccc(-c4ccccc4)cc3)NC(=O)[C@H](Cc3ccc(OCC(=O)O)cc3)NC2=O)c1` [Example 2463] ({CH2CO}-[4Pal][Phe(4-COOH)]D[Phe(3-Me)]Y(Carboxymethyl)[Bip]Y(Carboxymethyl)[NMeA][dL][Dab][Cha][Val(3-OH)]SC[AEEA][Aun]-OH; thioether N-14), for which the IC50 worked out at 69.3 nM.

In the case of `Cc1cccc(C[C@@H]2NC(=O)[C@H](CC(=O)O)NC(=O)[C@H](Cc3ccc(C(=O)O)cc3)NC(=O)[C@H](Cc3ccncc3)NC(=O)CSC[C@@H](C(=O)NCCOCCOCC(=O)NCCCCCCCCCCC(=O)O)NC(=O)[C@H](Cc3cnc[nH]3)NC(=O)[C@H](C(C)(C)O)NC(=O)[C@H](CC3CCCCC3)NC(=O)[C@H](CCN)NC(=O)[C@@H](CC(C)C)NC(=O)[C@H](C)N(C)C(=O)[C@H](Cc3ccc(OCC(=O)O)cc3)NC(=O)[C@H](Cc3ccc(-c4ccccc4)cc3)NC(=O)[C@H](Cc3ccc(OCC(=O)O)cc3)NC2=O)c1` [Example 2464] ({CH2CO}-[4Pal][Phe(4-COOH)]D[Phe(3-Me)]Y(Carboxymethyl)[Bip]Y(Carboxymethyl)[NMeA][dL][Dab][Cha][Val(3-OH)]HC[AEEA][Aun]-OH; thioether N-14), the IC50 turned out to be 46 nM. The same measure, in the same setting: the value for `Cc1cccc(C[C@@H]2NC(=O)[C@H](CC(=O)O)NC(=O)[C@H](Cc3ccc(OCC(=O)O)cc3)NC(=O)[C@H](CCN)NC(=O)CSC[C@@H](C(=O)N[C@@H](CCN)C(=O)NCCCCCCCCCCC(=O)O)NC(=O)[C@H](CO)NC(=O)[C@H](C(C)(C)O)NC(=O)[C@H](CC3CCCCC3)NC(=O)[C@H](Cc3c[nH]cn3)NC(=O)[C@@H](CC(C)C)NC(=O)[C@H](C)N(C)C(=O)[C@H](Cc3ccc(OCC(=O)O)cc3)NC(=O)[C@H](Cc3ccc(-c4ccccc4)cc3)NC(=O)[C@H](Cc3ccc(OCC(=O)O)cc3)NC2=O)c1` [Example 2465] ({CH2CO}-[Dab]Y(Carboxymethyl)D[Phe(3-Me)]Y(Carboxymethyl)[Bip]Y(Carboxymethyl)[NMeA][dL]H[Cha][Val(3-OH)]SC[Dab][Aun]-OH; thioether N-14) was 70.2 nM. `Cc1cccc(C[C@@H]2NC(=O)[C@H](CC(=O)O)NC(=O)[C@H](Cc3ccc(OCC(=O)O)cc3)NC(=O)[C@H](Cc3ccncc3)NC(=O)CSC[C@@H](C(=O)N[C@@H](CCN)C(=O)NCCCCCCCCCCC(=O)O)NC(=O)[C@H](CO)NC(=O)[C@H](C(C)(C)O)NC(=O)[C@H](CC3CCCCC3)NC(=O)[C@H](Cc3c[nH]cn3)NC(=O)[C@@H](CC(C)C)NC(=O)[C@H](C)N(C)C(=O)[C@H](Cc3ccc(OCC(=O)O)cc3)NC(=O)[C@H](Cc3ccc(-c4ccccc4)cc3)NC(=O)[C@H](Cc3ccc(OCC(=O)O)cc3)NC2=O)c1` [Example 2466] ({CH2CO}-[4Pal]Y(Carboxymethyl)D[Phe(3-Me)]Y(Carboxymethyl)[Bip]Y(Carboxymethyl)[NMeA][dL]H[Cha][Val(3-OH)]SC[Dab][Aun]-OH; thioether N-14): the IC50 worked out at 54.8 nM.

Values taken from patent US20260070945A1, “MACROCYCLIC IMMUNOMODULATORS” (Bristol-Myers Squibb Company, priority 2022, published 2026).
